Here are results for two molecules from patent publication US20180280504A1, “GLYCAN-INTERACTING COMPOUNDS AND METHODS OF USE” (SIAMAB THERAPEUTICS, INC., priority 2014, published 2018).

The term EC50 denotes the concentration needed to bring the measured effect to its halfway point.

The nature of data set [1]: E3-STn allograft model, average weight of mice. Format: in vivo, mouse.
Procedure: Balb/c mice were used as part of the test system. 50 female mice were inoculated with E3-STn cells to cause STn-expressing tumor formation. Mice were maintained under pathogen-free conditions with irradiated feed and autoclaved water.
The average weight of mice in each treatment group was also determined on days 1, 4, 6, 8, 11, 13, 15, 18, 20, 22, 26, 27, 29, 32, 34, 36, 39 and 41 following the first administration of each test article (see the following Table). The percent gain or loss over initial weight values is listed in parentheses.
Data set [2] is described as follows: PAA-glycan ELISA, AcSTn-PAA. It is filed as binding. The following applies: 200 ng/well PAA antigen; 1:5 dilutions from 1 μM. On the procedure:
(§1) 18D2 and 18C7 antibodies were further characterized by ELISA comprising antigens other than BSM. ELISAs were carried out according to Example 2, with the exception that ELISA plates were coated with biotinylated polyacrylamide (PAA) particles comprising either AcSTn (AcSTn-PAA), GcSTn (GcSTn-PAA) or Tn (Tn-PAA) as antigens. These particles present the antigens in a multivalent format. Briefly, 96-well ELISA plates were coated with 200 ng/well of each PAA antigen and blocked with PBS with 1% OVA. Antibodies were serially diluted at 1:5 in PBS with 1% OVA using an initial concentration of 1 μM. After blocking, antibodies were added to the plates and plates were incubated for 1.5 hours at room temperature. Binding of anti-STn antibodies was detected using a goat anti-mouse IgG-HRP conjugated antibody (Jackson Immunoresearch Laboratories, West Grove, Pa.). The reaction was developed by addition of HRP substrate and hydrogen peroxide. The reaction was then stopped by the addition of sulfuric acid (1.6 M). Optical densities were measured at 490 nm. A dose-response curve was generated using readings at each concentration tested and a non-linear regression curve was generated with four-parameter modeling to determine EC50 values for each antibody.
In general terms: ELISA stands for enzyme-linked immunosorbent assay.

Data set [3] is described as follows: PAA-glycan ELISA, GcSTn-PAA. It is filed as binding. The following applies: 200 ng/well PAA antigen; 1:5 dilutions from 1 μM. On the procedure: as §1
Data set [4] concerns ST6GalNAc 1 transfected MDA-MB-231 cells (MDA-STn+). The data set is described as follows: Flow cytometry-based analysis of antibody binding, STn+ cells. Set-up: species or system human. The settings on record: ST6GalNAc 1 transfected MDA-MB-231 cells; APC anti-mouse IgG. The method, then:
Flow cytometry-based analysis is carried out to elucidate the curve-dose response for binding of antibodies to cell surface antigens. For these analyses, three cell lines are employed.
MDA-MB-231 cells are human breast cancer cells. They are grown in Earle's Minimum Essential Medium supplemented with 10% fetal calf serum (FCS), 100 μg/ml penicillin, 100 UI/ml streptomycin and 45 μg/ml gentamycin. MCF-7 cells are also human breast cancer cells and are grown under the same conditions as MDA-MB-231 cells. Stably transfected versions of MDA-MB-231 and MCF-7 cells (clone TAH3.P10 for MDA-MB-231 cells and clone A12.1 for MCF-7 cells) that over express GalNAc α2,6-sialyltransferase (ST6GalNAc 1,) are also cultured under the same conditions with the exception of an added 1 mg/ml of G418 to support cells expressing the transgene. ST6GalNAc 1 is an enzme capable of sialylating GalNAc. As a result of over expression, transfected cells express high levels of Neu5Ac-STn (see Julien, S. et al., Glycoconjugate journal. 2001. 18, 883-93; the contents of which are herein incorporated by reference in their entirety). E3 cells are murine breast cancer cells. They are cultured in Dulbecco's E4 medium with 10% FCS. Stably transfected versions of E3 cells expressing high levels of Neu5Gc-STn (E3-STn) are cultured with 600 μg/ml of G418 and 200 μg/ml hygromycin. During growth and maintenance of experimental cells, trypsin is not used for cell passaging.
For analysis, cells are harvested using StemPro Accutase (Life Technologies, Carlsbad, Calif.) and washed with PBS comprising 5% FBS before pelleting by light centrifugation. Cell numbers and viability are determined by trypan blue dye exclusion analysis and cell concentrations are adjusted to 5×10^6 cells/ml in PBS with 5% FBS. 50 μl of cells are added to each well of an assay plate. Cells are combined with 50 μl solutions of antibody being analyzed or control antibodies and incubated for 1 hour at 4° C. Cells are washed and pelleted twice with PBS with 5% FBS before being treated with 100 μl of PBS with 5% FBS comprising a 1:1,500 dilution of anti-mouse IgG (Southern Biotech, Birmingham, Ala.,) conjugated to allophycocyanin (APC). Cells are incubated for 30 min at 4° C. before washing and resuspending in 200 μl of propidium iodide (PI) diluted 1:1000 in PBS with 5% FBS. Treated cells are then subjects to flow cytometry analysis and 10,000 events are acquired for each sample.
On the technique in general: In flow cytometry, cells or beads pass a laser one at a time.

With `CC(=O)O[C@H]1C(=O)[C@@]2(C)[C@H]([C@H](OC(=O)c3ccccc3)[C@]3(O)C[C@H](OC(=O)[C@H](O)[C@@H](NC(=O)c4ccccc4)c4ccccc4)C(C)=C1C3(C)C)[C@]1(OC(C)=O)CO[C@@H]1C[C@@H]2O` [Paclitaxel, reference compound], the “Average Weight” value was found to be 16.7 g in data set [1] (day 1 of study); 16.5 g in data set [1] (day 4 of study); 17 g in data set [1] (day 6 of study); 17.3 g in data set [1] (day 8 of study); 17.1 g in data set [1] (day 11 of study); 17.4 g in data set [1] (day 13 of study). The “Average Weight” value is 17.8 g in data set [1] (day 15 of study); 17.6 g in data set [1] (day 18 of study); 17.8 g in data set [1] (day 20 of study); 17.9 g in data set [1] (day 22 of study); 18.3 g in data set [1] (day 26 of study); 18.5 g in data set [1] (day 27 of study). In addition, the “Average Weight” value in data set [1] (day 29 of study) was found to be 18.9 g; in data set [1] (day 32 of study) it was 18.9 g; in data set [1] (day 34 of study) it was 19.2 g; in data set [1] (day 36 of study), 18.5 g; in data set [1] (day 39 of study) it was 19.1 g; in data set [1] (day 41 of study), 19.2 g.

B1: 3F1: commercially available mouse anti-STn monoclonal antibody (SBH Sciences), IgG1; VH SEQ ID NO: 59, VL SEQ ID NO: 60 (antibody, V domains shown)
VH: QVQLQQSDAELVKPGASVKISCKASGYTFTDHAIHWVKQKPEQGLDWIGYISPGNGDIKYNEKFKDKVTLTADKSSSTACMHLNSLTSEDSAVYFCKRSLLALDYWGQGTTLTVSS
VL: DIVMTQSHKFMSTSVGDRVSITCKASQDVGTNIAWYQQKPGRSPKVLIYSASTRHTGVPDRFTGSGSGTDFTLTISNVQSEDLTDYFCQQYSSFPLTFGVGTKLELK
Take B1: the results for the EC50 in data set [2] and in data set [3] were 152 nM and 73.2 nM, respectively. The “EC50, flow cytometry binding to cell-associated STn” value in data set [4] stood at 2.42 nM.
